Source: patent US11634425B2, “Pharmaceutical compounds” (priority 2019, dated 2023)
≈ marks a conversion by molar mass, not a printed value. Where two headings read alike, the source gives them in different places.

Experiments:
RSV A2 = experiment: RSV plaque reduction assay; assay type: cell-based, respiratory syncytial virus (RSV); details: human respiratory syncytial virus, HepG2, Hep-G2 cells, mean of at least two experiments
Outline: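 RSV A2 at 100 PFU/well was premixed with eight compound dilutions and added to confluent Hep-G2 monolayers for 2 h at 37 °C. Cells were then kept 2 days under a DMEM/2% FBS/0.8% CMC overlay containing compound. Immunostained plaques were counted relative to virus controls, and EC50 came from 4-parameter fits, averaged over at least two experiments.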

Cell cytotoxicity (CC50) = assay type: cell-based; details: human; mean of at least two experiments
Outline: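 Values are means of ≥2 independent runs, rounded to whole units, from 4-parameter variable-slope curve fits. Toxicity measured in Hep-G2 cells run alongside RSV plaque-reduction assays.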

Thermodynamic solubility = assay type: physicochemical; details: aqueous buffer, thermodynamic from solid; typically phosphate buffered saline pH 7.4, ambient temperature overnight
Protocol: Test compound (2.5 mg of solid; n=1) was weighed in an amber glass vial and buffer (0.5 mL) was added (typically phosphate buffered saline pH 7.4). The solution was agitated at ambient temperature overnight using a vial roller system. The solution was then filtered (0.45 μm pore size; without pre-saturation). Duplicate aliquots (50 μL) are sampled from the filtrate and diluted with one volume of Milli-Q water and methanol (1:1 v/v) before analysis by HPLC-UV. A standard was prepared in DMSO at 10 mg/mL (n=1) which was then diluted 10-fold in Milli-Q water and methanol (1:1 v/v) to give a 1 mg/mL solution. The concentration of test compound in the filtrate was quantified relative to the concentration standard. Analysis was performed using a gradient HPLC-MS system.

in vitro [1] = assay type: in vitro ADME; details: microsomes, pH 7.4, 1 μM compound, 0.5 mg/mL protein, read-out: Liver Microsomal Stability t1/2
Outline: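 Pooled liver microsomes (0.5 mg/mL protein) in 0.1 M phosphate pH 7.4 with 1 μM compound and 1 mM NADPH at 37° C., sampled at 0–45 min; minus-NADPH control at 45 min. Acetonitrile quench, LC-MS/MS; t1/2 and CLint from ln peak-area ratio vs time slope.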

in vitro [2] = assay type: in vitro ADME; details: hepatocytes, 3 μM compound, read-out: Liver Hepatocyte Stability t1/2
Protocol: Compounds were subjected to the following assays to investigate liver microsomal stability and hepatocyte stability.
Hepatocyte Incubation: Experimental Procedure
Cryopreserved pooled hepatocytes were purchased from a reputable commercial supplier and stored in liquid nitrogen prior to use. Williams E media supplemented with 2 mM L-glutamine and 25 mM HEPES and test compound (final substrate concentration 3 μM; final DMSO concentration 0.25%) are pre-incubated at 37° C. prior to the addition of a suspension of cryopreserved hepatocytes (final cell density 0.5×10^6 viable cells/mL in Williams E media supplemented with 2 mM L-glutamine and 25 mM HEPES) to initiate the reaction. The final incubation volume is 500 μL. Two control compounds were included with each species, alongside appropriate vehicle control. The reactions are stopped by transferring 50 μL of incubate to 100 μL acetonitrile containing internal standard at the appropriate time points. Samples were removed at 6 time points (0, 5, 15, 30, 45 and 60 min) over the course of a 60 min experiment. The termination plates are centrifuged at 2500 rpm at 4° C. for 30 min to precipitate the protein. Following protein precipitation, the sample supernatants were combined in cassettes of up to 4 compounds and analysed using generic LC-MS/MS conditions. From a plot of ln peak area ratio (compound peak area/internal standard peak area) against time, the gradient of the line is determined. Subsequently, half-life (t1/2) and intrinsic clearance (CLint) were calculated.

in vivo = assay type: in vivo; details: male Beagle dog
Protocol: The pharmacokinetics of compounds were studied in vivo in dogs at doses of 0.5 mg/kg (IV) and 4 mg/kg (PO).
Male Beagle dogs were treated with experimental compounds via intravenous administration (n=2; 0.5 mg/kg) or oral administration (n=2; 3 or 4 mg/kg). Compounds were formulated as a solution in 20% dimethylacetamide/80% (2-hydroxypropyl)-β-cyclodextrin (20% w/v) (IV administration) or a solution in 10% dimethylacetamide/90% (2-hydroxypropyl)-β-cyclodextrin (20% w/v) (PO administration). […] Serial blood samples were collected from the jugular vein at 0.03, 0.08, 0.25, 0.5, 1, 2, 4, 6, 8 and 24 h post IV dosing of compound, and at 0.08, 0.25, 0.5, 1, 2, 4, 6, 8 and 24 h post oral dosing of compound, and plasma was prepared by centrifugation and stored immediately at −80° C. Samples were subsequently thawed, prepared for analysis by protein precipitation with acetonitrile, and analysed by tandem LCMS using electrospray ionisation using a matrix-matched calibration curve. PK parameters were calculated from the resulting data.

RSV = details: Antimicrobial Agents and Chemotherapy, September 2007, 3346-3353; cited from earlier work

| SMILES | EC50 (RSV A2) [nM] | CC50 (Cell cytotoxicity (CC50)) [µM] | solubility thermodynamic (Thermodynamic solubility) [µM] | half-life at 1 μM (in vitro [1]; dog) [min] | half-life at 1 μM (in vitro [1]; human) [min] | half-life at 1 μM (in vitro [1]; rat) [min] | half-life at 3 μM (in vitro [2]; dog) [min] | half-life at 3 μM (in vitro [2]; human) [min] | half-life at 3 μM (in vitro [2]; rat) [min] | Vd (in vivo; in vivo, IV 0.5 mg/kg) [L/kg] | clearance (in vivo; in vivo, IV 0.5 mg/kg) [mL/min/kg] | Cmax (in vivo; in vivo, IV 0.5 mg/kg / PO 3 or 4 mg/kg study) [ng/mL] | half-life (in vivo; in vivo, IV 0.5 mg/kg, read-out: IV t1/2 (converted)) [min] | AUC(0-t) (in vivo; in vivo, PO 3 or 4 mg/kg, read-out: PO AUClast) [ng·h/mL] | half-life (in vivo; in vivo, PO 3 or 4 mg/kg, read-out: PO t1/2 (converted)) [min] | C 8 h (in vivo; 8 h, IV 0.5 mg/kg / PO 3 or 4 mg/kg study) [ng/mL] | F (in vivo; IV 0.5 mg/kg, PO 3 or 4 mg/kg) [%] | anti-RSV activity (RSV) |
| --- | --- | --- | --- | --- | --- | --- | --- | --- | --- | --- | --- | --- | --- | --- | --- | --- | --- | --- |
| Cc1nc2ccc(Cl)nn2c1C(=O)N[C@H]1N=C(c2ccccc2)c2cccc(F)c2NC1=O [Example 20, 6-Chloro-N-[(3S)-9-fluoro-2-oxo-5-phenyl-1,3-dihydro-1,4-benzodiazepin-3-yl]-2-methylimidazo[1,2-b]pyridazine-3-carboxamide] | 114 | > 25 | 3.84 (≈ 1.78 µg/mL) | > 140 | > 140 | 101 | 132 | 131 | 175 | 1.2 | 1.6 | 3850 | 618 | 43700 | 1150 | 1581 | 118 |  |
| O=C(Nc1ccccc1F)N[C@H]1N=C(c2ccccc2)c2ccccc2NC1=O [RSV604] |  |  |  |  |  |  |  |  |  |  |  |  |  |  |  |  |  | sub-micromolar |
